Source: patent US20240393340A1, “PROGNOSIS AND PREDICTIVE BIOMARKERS AND BIOLOGICAL APPLICATIONS THEREOF” (INSTITUT GUSTAVE ROUSSY, priority 2013, published 2024)

Legend:
Type in all cases: cell-based
eIF4F complex = test: Cap binding assay (m7GTP-Sepharose beads)
Description: FIG. 3: Examination of eIF4F complex formation by the “cap binding assay” in the indicated cell lines. Eluates from the beads (m7G-bound) and total extracts (input) were analyzed on 4% to 12% gradient gel electrophoresis, followed by Western blotting with the indicated antibodies.
Cells were grown for 48 h in 10% Fetal Bovine Serum (FBS) followed by 24 h without FBS. Cells were subsequently grown for 12 h in the absence or the presence of trastuzumab. Cells were harvested and lysed in ice-cold lysis buffer (KCl 150 mM, Hepes pH 7.5 50 mM, DTT 2 mM, Tween 20 0.2%, and Complete Protease Inhibitor Cocktail from Roche). Cell lysates were incubated with 7-methyl-GTP-sepharose 4B beads (Amersham Biosciences) for 2 h at 4° C. Eluates from the beads (7 mG-bound) and total extracts (Tot.) were analyzed on 4-12% gradient gel electrophoresis followed by western blot. Experiments were repeated at least 4 times.
In a so-called “cap binding assay”, synthetic m7GTP-Sepharose beads were used to capture eIF4E and its binding partners, eIF4G (called Cap-ON complex) and 4EBP1 (called Cap-OFF complex). The inventors observed that following PLX-4720 treatment, the amount of eIF4E-bound 4EBP1 (Cap-OFF complex) was increased, whereas the quantity of eIF4E-bound eIF4G (Cap-ON complex), i.e. the formation of the active eIF4F complex, was decreased in the two PLX-4720-sensitive cell lines (A375, Mel888) (FIG. 3). In contrast, and consistent with the inventors' hypothesis, the formation of the eIF4F complex was unchanged in the two cell lines (Mel624, A2058) with less sensitivity to PLX-4720.

Mel624 = test: Short-term growth-inhibition assay (Example 1)
Description: (§1) FIGS. 1A-1B: Short-term growth-inhibition assay of a panel of melanoma cell lines including BRAF (V600E) cell lines and an NRAS (Q61R) mutated cell line. FIG. 1A. Cells were treated with increasing concentrations of N-[3-[(5-Chloro-1H-pyrrolo[2,3-b]pyridin-3-yl)carbonyl]-2,4-difluorophenyl]-1-propanesulfonamide (PLX-4720) for 72 h and cell viability was determined using CellTiter-Blue by measuring the absorbance at 540 nm in a microplate reader. Error bars show data +standard error. Means were derived from four replicates (n=4). FIG. 1B. Long-term colony formation assay of the indicated cells. Cells were grown in the absence or presence of PLX-4720 at the indicated concentrations for 15-20 days. For each cell line, all dishes were fixed at the same time, stained and photographed. […]
(§2) The inventors quantified the effect of exposing these cell lines to PLX-4720 on the half-maximum inhibitory concentration (IC50) (Table 1).

A2058 = test: Short-term growth-inhibition assay (Example 1)
Description: as §1, §2

[1] = test system: eIF4E-eIF4G and eIF4E-4EBP1 interactions; test: Proximity ligation assay in cell lines
Description: FIGS. 4A-4B: The interactions between eIF4E and eIG4G (“Cap-ON”) and between […] (“Cap-OFF” interaction) are (FIG. 4A) visualized by the PLA technique and (FIG. 4B) quantified (number of points per 100 nucleus) using ImageJ for the indicated cell lines and treatments.
FIGS. 5A-5C: The interactions between eIF4E and eIF4G (“Cap-ON”) and between […] (“Cap-OFF” interaction) are (FIG. 5A) visualized by the PLA technique and (FIG. 5B) quantified (number of points per 100 nucleus) using ImageJ for the indicated cell lines and treatments. (FIG. 5C) Cells were treated with increasing concentrations of PLX-4720 for 72 h, and cell viability was determined using CellTiter-Blue by measuring the absorbance at 540 nm in a microplate reader. Error bars show datatstandard error. Means were derived from four replicates (n=4).
FIGS. 9A-9B: The formation of the eIF4F translation initiation complex is associated with resistance to anti-BRAF inhibitors. FIG. 9A: Quantification of the proximity ligation assay showing the number of red spots (corresponding to the interactions between eIF4E-elF4G or eIF4E-4EBP1) per 100 nuclei (quantified with the Volocity software). Data are means±s.d. (n=3). Significance determined by Mann-Whitney U test (*P<0.05, **P<0.01). FIG. 9B: The eIF4E-eIF4G and eIF4E-4EBP1 interactions detected by in situ proximity ligation assay in vemurafenib (6 μM)-treated (24 h) or untreated HT29 colon cancer cell line and BCPAP thyroid cancer cell line respectively. The interactions were visualised as red fluorescent spots by the scanner Olympus VS120. Cell nuclei were stained with DAPI (blue).
Proximity ligation assays (PLAs) were performed on both fixed and permeabilized transfected cell lines in chamber slides and TMA slides containing melanoma tissue. Following dewaxing and rehydrating of tissue sections, antigen retrieval was performed by heating the slides for 30 min at 95° C. in TE buffer, pH 9. […] The number of in situ PLA signals per cell was counted by semi-automated image analysis. […]

[2] = sensitive cell lines A375, Mel888
[3] = sensitive cell lines A375, Mel888, treated vs untreated

## CCCS(=O)(=O)Nc1ccc(F)c(C(=O)c2c[nH]c3ncc(Cl)cc23)c1F [PLX-4720, N-[3-[(5-Chloro-1H-pyrrolo[2,3-b]pyridin-3-yl)carbonyl]-2,4-difluorophenyl]-1-propanesulfonamide]
eIF4F complex; less sensitive cell lines Mel624, A2058
  formation / disruption of the eIF4F (eIF4E-eIF4G) complex: unchanged
eIF4F complex; [2]
  amount of eIF4E-bound 4EBP1 (Cap-OFF complex): increased
  quantity of eIF4E-bound eIF4G (Cap-ON complex): decreased
Mel624; Mel624, short-term and long-term proliferation assays, Example 1
  sensitivity of the cell line compared to the other BRAF (V600E)-mutated melanoma cell lines: less sensitive
Mel624; Mel624 cell line, read-out: half-maximum inhibitory concentration (IC50)
  IC50: 4.4 µM
A2058; A2058, short-term and long-term proliferation assays, Example 1
  sensitivity of the cell line compared to the other BRAF (V600E)-mutated melanoma cell lines: less sensitive
A2058; Homo sapiens, A2058 cell line, read-out: half-maximum inhibitory concentration (IC50)
  IC50: 2.4 µM
[1]; less sensitive / resistant cell lines Mel624, A2058
  Cap-ON and Cap-OFF interaction: didn't affect
[1]; [3]
  eIF4E-4EBP1 (Cap-OFF) interaction: increase
  eIF4E-eIF4G (Cap-ON) interaction: reduced signal counts
